Measured values as given in the NIST ThermoML archive (doi:10.1016/j.fluid.2006.09.007).
Numbers after ± are expanded uncertainties.

Settings: Liquid, Ebulliometric method (Recirculating still)

| vapor or sublimation pressure (315 K) [kPa] | vapor or sublimation pressure (318 K) [kPa] | vapor or sublimation pressure (321 K) [kPa] | vapor or sublimation pressure (324 K) [kPa] | vapor or sublimation pressure (327 K) [kPa] | vapor or sublimation pressure (330 K) [kPa] | vapor or sublimation pressure (333 K) [kPa] | vapor or sublimation pressure (336 K) [kPa] | vapor or sublimation pressure (339 K) [kPa] | vapor or sublimation pressure (342 K) [kPa] | vapor or sublimation pressure (345 K) [kPa] | Structure (SMILES) | vapor or sublimation pressure (314 K) [kPa] | vapor or sublimation pressure (317 K) [kPa] | vapor or sublimation pressure (320 K) [kPa] | vapor or sublimation pressure (323 K) [kPa] | vapor or sublimation pressure (326 K) [kPa] | vapor or sublimation pressure (329 K) [kPa] | vapor or sublimation pressure (332 K) [kPa] | vapor or sublimation pressure (335 K) [kPa] | vapor or sublimation pressure (338 K) [kPa] |
| --- | --- | --- | --- | --- | --- | --- | --- | --- | --- | --- | --- | --- | --- | --- | --- | --- | --- | --- | --- | --- |
|  |  |  |  |  |  |  |  |  |  |  | CC(C)=O [acetone] | 57.96 ± 0.47 | 64.95 ± 0.49 | 72.6 ± 0.54 | 80.96 ± 0.58 | 90.08 ± 0.64 | 100 ± 0.69 | 110.78 ± 0.75 | 122.47 ± 0.81 | 135.11 ± 0.85 |
| 38.33 ± 0.38 | 43.97 ± 0.4 | 50.29 ± 0.45 | 57.36 ± 0.5 | 65.25 ± 0.56 | 74.02 ± 0.62 | 83.76 ± 0.68 | 94.55 ± 0.76 | 106.47 ± 0.84 | 119.61 ± 0.92 | 134.07 ± 0.96 | CO [methanol] |  |  |  |  |  |  |  |  |  |
